# Measurements as given in ChEMBL document CHEMBL1121707, “Synthesis of 2'-deoxy-L-fucopyranosylcarminomycinone and -epsilon-pyrromycinone as well as 2'-deoxy-D-erythro-pentopyranosyldaunomycinone, -carminomycinone, and -epsilon-pyrromycinone” (1981).
# Tests used:
# Bacillus subtilis [1] = experiment: Tested for antibacterial effect against Bacillus subtilis-8 at dose 12.5 ug/mL; format: functional
# Bacillus subtilis [2] = experiment: Tested for antibacterial effect against Bacillus subtilis-8 at dose 25 ug/mL; format: functional
# Bacillus subtilis [3] = experiment: Tested for antibacterial effect against Bacillus subtilis-8 at dose 50 ug/mL; format: functional
# Bacillus subtilis [4] = experiment: Tested for antibacterial effect against Bacillus subtilis-8 at dose 6.25 ug/mL; format: functional
# L1210 [5] = experiment: Median survival time of treated to that of control after administration at 0.4 mg/kg intraperitoneally in BDF1 mice on day 1 in experiment 1; format: functional, Mus musculus; details: route intraperitoneal
# L1210 [6] = experiment: Median survival time of treated to that of control after administration at 0.8 mg/kg intraperitoneally in BDF1 mice on day 1 in experiment 1; format: functional, Mus musculus; details: route intraperitoneal
# L1210 [7] = experiment: Median survival time of treated to that of control after administration at 1.6 mg/kg intraperitoneally in BDF1 mice on day 1 in experiment 1; format: functional, Mus musculus; details: route intraperitoneal
# L1210 [8] = experiment: Tested for survivors on day 5 after administration at 6.4 mg/kg intraperitoneally in mice on day 1 in experiment 1; format: functional, Mus musculus; details: route intraperitoneal
# L1210 [9] = experiment: Median survival time of treated to that of control after administration at 12.8 mg/kg intraperitoneally in BDF1 mice on day 1 in experiment 1; format: functional, Mus musculus; details: route intraperitoneal
# L1210 [10] = experiment: Average weight change after administration at 0.4 mg/kg intraperitoneally in mice on day 1 in experiment 1; format: functional, Mus musculus; details: route intraperitoneal
# L1210 [11] = experiment: Average weight change after administration at 0.8 mg/kg intraperitoneally in mice on day 1 in experiment 1; format: functional, Mus musculus; details: route intraperitoneal
# L1210 [12] = experiment: Average weight change after administration at 12.8 mg/kg intraperitoneally in mice on day 1 in experiment 1; format: functional, Mus musculus; details: route intraperitoneal
# L1210 [13] = experiment: Average weight change after administration at 3.2 mg/kg intraperitoneally in mice on day 1 in experiment 1; format: functional, Mus musculus; details: route intraperitoneal
# L1210 [14] = experiment: Average weight change after administration at 6.4 mg/kg intraperitoneally in mice on day 1 in experiment 1; format: functional, Mus musculus; details: route intraperitoneal
# L1210 [15] = experiment: Median survival time of treated to that of control after administration at 6.4 mg/kg intraperitoneally in BDF1 mice on day 1 in experiment 1; format: functional, Mus musculus; details: route intraperitoneal
# L1210 [16] = experiment: Tested for survivors on day 5 after administration at 12.8 mg/kg intraperitoneally in mice on day 1 in experiment 1; format: functional, Mus musculus; details: route intraperitoneal
# L1210 [17] = experiment: Tested for survivors on day 5 after administration at 3.2 mg/kg intraperitoneally in mice on day 1 in experiment 1; format: functional, Mus musculus; details: route intraperitoneal
# L1210 [18] = experiment: Tested for survivors on day 5 after administration at 0.4 mg/kg intraperitoneally in mice on day 1 in experiment 1; format: functional, Mus musculus; details: route intraperitoneal
# L1210 [19] = experiment: Tested for survivors on day 5 after administration at 0.8 mg/kg intraperitoneally in mice on day 1 in experiment 1; format: functional, Mus musculus; details: route intraperitoneal
# L1210 [20] = experiment: Tested for survivors on day 5 after administration at 1.6 mg/kg intraperitoneally in mice on day 1 in experiment 1; format: functional, Mus musculus; details: route intraperitoneal
# P388 [21] = experiment: Median survival time of treated to that of control after administration on every 4th day at 6.25 mg/kg intraperitoneally in BDF1 mice; format: functional, Mus musculus; details: route intraperitoneal
# P388 [22] = experiment: Tested for survivors on day 5 after administration at 12.5 mg/kg intraperitoneally in mice on day 1 in experiment 2; format: functional, Mus musculus; details: route intraperitoneal
# P388 [23] = experiment: Tested for survivors on day 5 after administration on every 4th day at 25 mg/kg intraperitoneally in mice; format: functional, Mus musculus; details: route intraperitoneal
# P388 [24] = experiment: Tested for survivors on day 5 after administration on every 4th day at 3.13 mg/kg intraperitoneally in mice; format: functional, Mus musculus; details: route intraperitoneal
# P388 [25] = experiment: Tested for survivors on day 5 after administration on every 4th day at 50 mg/kg intraperitoneally in mice; format: functional, Mus musculus; details: route intraperitoneal
# P388 [26] = experiment: Median survival time of treated to that of control after administration at 3.13 mg/kg intraperitoneally in BDF1 mice; format: functional, Mus musculus; details: route intraperitoneal
# P388 [27] = experiment: Median survival time of treated to that of control after administration on every 4th day at 12.5 mg/kg intraperitoneally in BDF1 mice; format: functional, Mus musculus; details: route intraperitoneal
# P388 [28] = experiment: Median survival time of treated to that of control after administration on every 4th day at 25 mg/kg intraperitoneally in BDF1 mice; format: functional, Mus musculus; details: route intraperitoneal
# P388 [29] = experiment: Tested for survivors on day 5 after administration on every 4th day at 6.25 mg/kg intraperitoneally in mice; format: functional, Mus musculus; details: route intraperitoneal
# P388 [30] = experiment: Average weight change after administration at 3.13 mg/kg intraperitoneally in mice; format: functional, Mus musculus; details: route intraperitoneal
# P388 [31] = experiment: Average weight change after administration on every 4th day at 12.5 mg/kg intraperitoneally in mice; format: functional, Mus musculus; details: route intraperitoneal
# P388 [32] = experiment: Average weight change after administration on every 4th day at 25 mg/kg intraperitoneally in mice; format: functional, Mus musculus; details: route intraperitoneal
# P388 [33] = experiment: Average weight change after administration on every 4th day at 50 mg/kg intraperitoneally in mice; format: functional, Mus musculus; details: route intraperitoneal
# L1210 [34] = experiment: Average weight change after administration at 1.6 mg/kg intraperitoneally in mice on day 1 in experiment 1; format: functional, Mus musculus; details: route intraperitoneal
# L1210 [35] = experiment: Median survival time of treated to that of control after administration at 3.2 mg/kg intraperitoneally in BDF1 mice on day 1 in experiment 1; format: functional, Mus musculus; details: route intraperitoneal
# P388 [36] = experiment: Average weight change after administration on every 4th day at 6.25 mg/kg intraperitoneally in mice; format: functional, Mus musculus; details: route intraperitoneal
# P388 [37] = experiment: Median survival time of treated to that of control after administration on every 4th day at 50 mg/kg intraperitoneally in BDF1 mice; format: functional, Mus musculus; details: route intraperitoneal
# Bacillus subtilis [38] = experiment: Tested for antibacterial effect against Bacillus subtilis-8 at dose 3.1 ug/mL; format: functional
# L1210 [39] = experiment: Average weight change after administration at 1.6 mg/kg intraperitoneally in mice on day 1 in experiment 2; format: functional, Mus musculus; details: route intraperitoneal
# L1210 [40] = experiment: Average weight change after administration at 12.8 mg/kg intraperitoneally in mice on day 1 in experiment 2; format: functional, Mus musculus; details: route intraperitoneal
# L1210 [41] = experiment: Average weight change after administration at 25.6 mg/kg intraperitoneally in mice on day 1 in experiment 2; format: functional, Mus musculus; details: route intraperitoneal
# L1210 [42] = experiment: Average weight change after administration at 3.2 mg/kg intraperitoneally in mice on day 1 in experiment 2; format: functional, Mus musculus; details: route intraperitoneal
# L1210 [43] = experiment: Average weight change after administration at 51.2 mg/kg intraperitoneally in mice on day 1 in experiment 2; format: functional, Mus musculus; details: route intraperitoneal
# L1210 [44] = experiment: Average weight change after administration at 6.4 mg/kg intraperitoneally in mice on day 1 in experiment 2; format: functional, Mus musculus; details: route intraperitoneal
# L1210 [45] = experiment: Average weight change after administration from 1-9 days at 0.4 mg/kg intraperitoneally in BDF1 mice; format: functional, Mus musculus; details: route intraperitoneal
# L1210 [46] = experiment: Average weight change after administration from 1-9 days at 0.8 mg/kg intraperitoneally in BDF1 mice; format: functional, Mus musculus; details: route intraperitoneal
# L1210 [47] = experiment: Average weight change after administration from 1-9 days at 1.6 mg/kg intraperitoneally in BDF1 mice; format: functional, Mus musculus; details: route intraperitoneal
# L1210 [48] = experiment: Average weight change after administration from 1-9 days at 12.8 mg/kg intraperitoneally in BDF1 mice; format: functional, Mus musculus; details: route intraperitoneal
# L1210 [49] = experiment: Average weight change after administration from 1-9 days at 3.2 mg/kg intraperitoneally in BDF1 mice; format: functional, Mus musculus; details: route intraperitoneal
# L1210 [50] = experiment: Average weight change after administration from 1-9 days at 6.4 mg/kg intraperitoneally in BDF1 mice; format: functional, Mus musculus; details: route intraperitoneal
structure (smiles),measurement,setting,value
COc1cccc2c1C(=O)c1c(O)c3c(c(O)c1C2=O)C[C@@](O)(C(C)=O)C[C@@H]3O[C@H]1C[C@H](O)[C@H](O)CO1,Inhibition zone,Bacillus subtilis [1],12.5 mm
same,Inhibition zone,Bacillus subtilis [2],15.8 mm
same,Inhibition zone,Bacillus subtilis [3],18.8 mm
same,Inhibition zone,Bacillus subtilis [4],10 mm
same,T/C,L1210 [5],100%
same,T/C,L1210 [6],100%
same,T/C,L1210 [7],86%
same,Survivors,L1210 [8],6
same,T/C,L1210 [9],107%
same,Average weight change,L1210 [10],1.5
same,Average weight change,L1210 [11],1.8
same,Average weight change,L1210 [12],2.3
same,Average weight change,L1210 [13],0.2
same,Average weight change,L1210 [14],2.4
same,T/C,L1210 [15],93%
same,Survivors,L1210 [16],6
same,Survivors,L1210 [17],6
same,Survivors,L1210 [18],6
same,Survivors,L1210 [19],6
same,Survivors,L1210 [20],6
same,T/C,P388 [21],100%
same,Survivors,P388 [22],6
same,Survivors,P388 [23],6
same,Survivors,P388 [24],6
same,Survivors,P388 [25],6
same,T/C,P388 [26],100%
same,T/C,P388 [27],112%
same,T/C,P388 [28],110%
same,Survivors,P388 [29],6
same,Average weight change,P388 [30],-2
same,Average weight change,P388 [31],-1.3
same,Average weight change,P388 [32],-0.5
same,Average weight change,P388 [33],0.2
same,Average weight change,L1210 [34],2.6
same,T/C,L1210 [35],100%
same,Average weight change,P388 [36],-1.2
same,T/C,P388 [37],110%
CC(=O)[C@]1(O)Cc2c(O)c3c(c(O)c2[C@@H](O[C@H]2C[C@H](O)[C@H](O)[C@H](C)O2)C1)C(=O)c1c(O)cccc1C3=O,Inhibition zone,Bacillus subtilis [1],21.3 mm
same,Inhibition zone,Bacillus subtilis [2],21.5 mm
same,Inhibition zone,Bacillus subtilis [38],17.2 mm
same,Inhibition zone,Bacillus subtilis [3],21.5 mm
same,Inhibition zone,Bacillus subtilis [4],19.5 mm
same,Average weight change,L1210 [10],-0.8
same,Average weight change,L1210 [11],1.2
same,Average weight change,L1210 [39],-0.6
same,Average weight change,L1210 [12],-0.4
same,Average weight change,L1210 [40],0.3
same,Average weight change,L1210 [41],-1.2
same,Average weight change,L1210 [13],-0.9
same,Average weight change,L1210 [42],0.2
same,Average weight change,L1210 [43],-1.9
same,Average weight change,L1210 [14],-1.1
same,Average weight change,L1210 [44],0.7
same,Average weight change,L1210 [45],0.6
same,Average weight change,L1210 [46],2.3
same,Average weight change,L1210 [47],0.6
same,Average weight change,L1210 [48],-1.6
same,Average weight change,L1210 [49],-0.3
same,Average weight change,L1210 [50],2.4
same,Average weight change,L1210 [34],-0.8
